Literature values in publication PMC6832141, “Synthesis and Cyclooxygenase Inhibition of Sulfonamide-Substituted (Dihydro)Pyrrolo[3,2,1-hi]indoles and Their Potential Prodrugs” (Molecules, 2019).
Where two headings read alike, the source gives them in different places.

Key:
[1] = design: method as in doi:10.1002/slct.201601618, PMID 12064545; conditions: reference substances for the HPLC logD method; cited from earlier work
[2] = rat plasma, parecoxib leading to valdecoxib, cited from earlier work
[3] = tested on: hCOX-2; conditions: read-out: IC50 hCOX-2; cited from earlier work

SMILES | logD7.4 of HPLC references [1] | elimination half-life T1/2 ([2]; ref 19) | elimination half-life T1/2 ([2]; ref 23) | IC50 [3]
C[C@]12CCC(=O)C=C1CC[C@@H]1[C@@H]2[C@@H](O)C[C@@]2(C)[C@H]1CC[C@]2(O)C(=O)CO [Hydrocortisone] | 1.65 | – | – | –
CCC(=O)NS(=O)(=O)c1ccc(-c2c(-c3ccccc3)noc2C)cc1 [parecoxib] | – | 8.1 min | 41.4 min | 20 µM
